molecular target: T1, orexin-2 receptor (Homo sapiens, UniProt O43614); assay: Orexin radioligand binding assay (125I-orexin A, adherent recombinant cells); settings: 125I-orexin A displacement, recombinant CHO-K1 or HEK-293 cells expressing the orexin receptor
T1 construct: expressed in transfected cells; host or cells: CHO-K1 (preferred) or HEK-293 recombinant clones
T1 sequence (O43614 1-444): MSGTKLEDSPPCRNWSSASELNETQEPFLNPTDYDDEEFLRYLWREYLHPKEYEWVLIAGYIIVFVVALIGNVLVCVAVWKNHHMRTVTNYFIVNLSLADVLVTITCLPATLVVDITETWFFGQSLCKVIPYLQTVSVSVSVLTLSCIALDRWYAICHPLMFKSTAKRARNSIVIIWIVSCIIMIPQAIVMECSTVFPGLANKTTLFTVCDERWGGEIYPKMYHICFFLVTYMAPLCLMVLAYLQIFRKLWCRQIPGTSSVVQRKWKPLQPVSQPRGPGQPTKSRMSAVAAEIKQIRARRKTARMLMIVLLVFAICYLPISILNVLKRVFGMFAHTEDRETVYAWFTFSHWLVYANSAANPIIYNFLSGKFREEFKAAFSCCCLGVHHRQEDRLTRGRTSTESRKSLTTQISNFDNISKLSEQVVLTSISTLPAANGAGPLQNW
Procedure: The reaction was quenched with 100 μL of 10% w/v bovine serum albumin, then the products were pre-purified using Waters Maxi-Clean C18 cartridges (Alltech, San Jose, Calif.). The mobile phase for the reverse phase separations (pre-purification and gradient HPLC) was 0.1% TFA, and the eluent was 0.1% TFA in acetonitrile. After removing the acetonitrile from the Maxi-Clean cartridge eluent by lyophilization, the labeled compound was further purified by gradient HPLC using a Vydac (Hesperia, Calif.) analytical C18 HPLC column. A gradient of 2% acetonitrile/min was used and fractions were collected every 0.75 min at a flow rate of 1.5 mL/min.
Radioligand binding assays were performed in opaque, white 96-well tissue culture plates pretreated with poly-D-lysine (Bio-Coat plates, Becton Dickinson, Franklin Lakes, N.J.). Cells expressing the orexin receptor were seeded at 30,000 cells/well in 100 μL/well Ham's F12 with 10% heat inactivated fetal bovine serum, penicillin/streptomycin and 800 mg/L G418. […] In preparation for the binding assay, the cell culture medium was aspirated away, and the cells were gently washed with 100 μL-well binding buffer (Dulbecco's phosphate buffered saline containing 0.1% w/v bovine serum albumin). […] The assay was terminated by aspirating the liquid from the wells, washing the wells with iced binding buffer, aspirating the wells dry, adding 50 μL/well scintillation cocktail (MicroScint 40, Packard Biosciences, Meriden Conn.), and counting the plate(s) in a Packard TopCount scintillation counter. […] Data were analyzed using GraphPad Prizm software to calculate Ki values.

| Structure (SMILES) | Ki |
| --- | --- |
| CC1(C)OC[C@H](NC(=O)Nc2cccc(Br)c2)[C@H](c2ccccc2)O1 [Example 44, 1-(3-Bromo-phenyl)-3-((4S,5S)-2,2-dimethyl-4-phenyl-[1,3]dioxan-5-yl)-urea] | 3800 nM |
| CC1(C)OC[C@H](/N=C(\S)Nc2ccc(Cl)cc2Cl)[C@H](c2ccccc2)O1 [Example 22, 1-(2,4-Dichloro-phenyl)-3-((4S,5S)-2,2-dimethyl-4-phenyl-[1,3]dioxan-5-yl)-thiourea] | 280 nM |
| CC1(c2ccccc2)OC[C@H](NC(=O)Nc2ccccc2Br)[C@H](c2ccccc2)O1 (stereo partly drawn) [Example 28, 1-(2-Bromo-phenyl)-3-((4S,5S)-2-methyl-2,4-diphenyl-[1,3]dioxan-5-yl)-urea] | 2600 nM |
| Cc1ccc(Cl)c(NC(=O)N[C@H]2COC(C)(C)O[C@H]2c2ccccc2)c1 [Example 3, 1-(2-Chloro-5-methyl-phenyl)-3-((4S,5S)-2,2-dimethyl-4-phenyl-[1,3]dioxan-5-yl)-urea] | 27 nM |
| CC1(C)OC[C@H](/N=C(\S)Nc2ccccc2Br)[C@H](c2ccccc2)O1 [Example 24, 1-(2-Bromo-phenyl)-3-((4S,5S)-2,2-dimethyl-4-phenyl-[1,3]dioxan-5-yl)-thiourea] | 540 nM |
| Cc1cc(Br)ccc1NC(=O)N[C@H]1COC(C)(C)O[C@H]1c1ccccc1 [Example 2, 1-(4-Bromo-2-methyl-phenyl)-3-((4S,5S)-2,2-dimethyl-4-phenyl-[1,3]dioxan-5-yl)-urea] | 50 nM |
| CC1(C)OC[C@H](NC(=O)Nc2ccccc2-c2ccsc2)[C@H](c2ccccc2)O1 [Example 15, 1-((4S,5S)-2,2-Dimethyl-4-phenyl-[1,3]dioxan-5-yl)-3-(2-thiophen-3-yl-phenyl)-urea] | 100 nM |
| CC1(C)OC[C@H](NC(=O)Nc2ccccc2I)[C@H](c2ccccc2)O1 [Example 6, 1-((4S,5S)-2,2-Dimethyl-4-phenyl-[1,3]dioxan-5-yl)-3-(2-iodo-phenyl)-urea] | 70 nM |
| O=C(Nc1ccccc1Br)N[C@H]1COC2(CCCCC2)O[C@H]1c1ccccc1 [Example 26, 1-(2-Bromo-phenyl)-3-((2S,3S)-2-phenyl-1,5-dioxa-spiro[5.5]undec-3-yl)-urea] | 980 nM |
| CC1(C)OC[C@H](NC(=O)Nc2ccccc2-c2cccc(Cl)c2)[C@H](c2ccccc2)O1 [Example 14, 1-(3′-Chloro-biphenyl-2-yl)-3-((4S,5S)-2,2-dimethyl-4-phenyl-[1,3]dioxan-5-yl)-urea] | 63 nM |
| CC(C)c1ccccc1NC(=O)N[C@H]1COC(C)(C)O[C@H]1c1ccccc1 [Example 42, 1-((4S,5S)-2,2-Dimethyl-4-phenyl-[1,3]dioxan-5-yl)-3-(2-isopropyl-phenyl)-urea] | 2900 nM |
| CC1(C)OC[C@H](NC(=O)Cc2ccccc2Br)[C@H](c2ccccc2)O1 [Example 34, 2-(2-Bromo-phenyl)-N-((4S,5S)-2,2-dimethyl-4-phenyl-[1,3]dioxan-5-yl)-acetamide] | 2200 nM |
| CC1(C)OC[C@H](NC(=O)Nc2ccccc2C(=O)O)[C@H](c2ccccc2)O1 [Example 41, 2-[3-((4S,5S)-2,2-Dimethyl-4-phenyl-[1,3]dioxan-5-yl)-ureido]-benzoic acid] | 710 nM |
| Cc1ccc(C)c(NC(=O)N[C@H]2COC(C)(C)O[C@H]2c2ccccc2)c1 [Example 11, 1-(2,5-Dimethyl-phenyl)-3-((4S,5S)-2,2-dimethyl-4-phenyl-[1,3]dioxan-5-yl)-urea] | 64 nM |
| CC1(C)OC[C@H](NC(=O)Nc2ccc(I)cc2)[C@H](c2ccccc2)O1 [Example 7, 1-((4S,5S)-2,2-Dimethyl-4-phenyl-[1,3]dioxan-5-yl)-3-(4-iodo-phenyl)-urea] | 45 nM |
| CC1(C)OC[C@H](NC(=O)Nc2ccccc2-c2cccs2)[C@H](c2ccccc2)O1 [Example 13, 1-((4S,5S)-2,2-Dimethyl-4-phenyl-[1,3]dioxan-5-yl)-3-(2-thiophen-2-yl-phenyl)-urea] | 34 nM |
| CC1(C)OC[C@H](NC(=O)Nc2ccccc2F)[C@H](c2ccccc2)O1 [Example 31, 1-((4S,5S)-2,2-Dimethyl-4-phenyl-[1,3]dioxan-5-yl)-3-(2-fluoro-phenyl)-urea] | 1550 nM |
| CC1(C)OC[C@H](NC(=O)Nc2ccccc2-c2cccnc2)[C@H](c2ccccc2)O1 [Example 23, 1-((4S,5S)-2,2-Dimethyl-4-phenyl-[1,3]dioxan-5-yl)-3-(2-pyridin-3-yl-phenyl)-urea] | 320 nM |

| Structure (SMILES) | Ki |
| --- | --- |
| CC1(C)OC[C@H](NC(=O)Nc2ccc(Cl)cc2)[C@H](c2ccccc2)O1 [Example 39, 1-(4-Chloro-phenyl)-3-((4S,5S)-2,2-dimethyl-4-phenyl-[1,3]dioxan-5-yl)-urea] | 300 nM |
| CC1(C)OC[C@H](NC(=O)Nc2ccccc2C#N)[C@H](c2ccccc2)O1 [Example 20, 1-(2-Cyano-phenyl)-3-((4S,5S)-2,2-dimethyl-4-phenyl-[1,3]dioxan-5-yl)-urea] | 60 nM |
| CC1(C)OC[C@H](NC(=O)Nc2cc(C(F)(F)F)ccc2Cl)[C@H](c2ccccc2)O1 [Example 17, 1-(2-Chloro-5-trifluoromethyl-phenyl)-3-((4S,5S)-2,2-dimethyl-4-phenyl-[1,3]dioxan-5-yl)-urea] | 120 nM |
| CC1(C)OC[C@H](NC(=O)Nc2c(Cl)cccc2Cl)[C@H](c2ccccc2)O1 [Example 43, 1-(2,6-Dichloro-phenyl)-3-((4S,5S)-2,2-dimethyl-4-phenyl-[1,3]dioxan-5-yl)-urea] | 5000 nM |
| Cc1ccccc1NC(=O)N[C@H]1COC(C)(C)O[C@H]1c1ccccc1 [Example 32, 1-((4S,5S)-2,2-Dimethyl-4-phenyl-[1,3]dioxan-5-yl)-3-o-tolyl-urea] | 650 nM |
| CC1(C)OC[C@H](NC(=O)Nc2cccc(Cl)c2)[C@H](c2ccccc2)O1 [Example 46, 1-(3-Chloro-phenyl)-3-((4S,5S)-2,2-dimethyl-4-phenyl-[1,3]dioxan-5-yl)-urea] | 2000 nM |
| COC(=O)c1ccccc1NC(=O)N[C@H]1COC(C)(C)O[C@H]1c1ccccc1 [Example 40, 2-[3-((4S,5S)-2,2-Dimethyl-4-phenyl-[1,3]dioxan-5-yl)-ureido]-benzoic acid methyl ester] | 1200 nM |
| CC1(C)OC[C@H](NC(=O)Oc2ccccc2Cl)[C@H](c2ccccc2)O1 [Example 35, ((4S,5S)-2,2-Dimethyl-4-phenyl-[1,3]dioxan-5-yl)-carbamic acid 2-chloro-phenyl ester] | 2600 nM |
| CC1(C)OC[C@H](NC(=O)Nc2ccccc2[N+](=O)[O-])[C@H](c2ccccc2)O1 [Example 33, 1-((4S,5S)-2,2-Dimethyl-4-phenyl-[1,3]dioxan-5-yl)-3-(2-nitro-phenyl)-urea] | 580 nM |
| CC1(C)OC[C@H](NC(=O)Nc2ccc(Br)cc2)[C@H](c2ccccc2)O1 [Example 36, 1-(4-Bromo-phenyl)-3-((4S,5S)-2,2-dimethyl-4-phenyl-[1,3]dioxan-5-yl)-urea] | 1400 nM |
| CC1(C)OC[C@H](NC(=O)Nc2ccc(F)cc2F)[C@H](c2ccccc2)O1 [Example 45, 1-(2,4-Difluoro-phenyl)-3-((4S,5S)-2,2-dimethyl-4-phenyl-[1,3]dioxan-5-yl)-urea] | 6000 nM |
| Cc1ccc(/N=C(\NC#N)N[C@H]2COC(C)(C)O[C@H]2c2ccccc2)c(Br)c1 [Example 27, N-(2-Bromo-4-methyl-phenyl)-N′-((4S,5S)-2,2-dimethyl-4-phenyl-[1,3]dioxan-5-yl)-N″-cyanoguanidine] | 1000 nM |
| O=C(Nc1ccc(Br)cc1Br)N[C@H]1COC2(CCCCC2)O[C@H]1c1ccccc1 [Example 25, 1-(2,4-Dibromo-phenyl)-3-((2S,3S)-2-phenyl-1,5-dioxa-spiro[5.5]undec-3-yl)-urea] | 700 nM |
| CC1(C)OC[C@H](NC(=O)Nc2cc(Cl)ccc2Cl)[C@H](c2ccccc2)O1 [Example 10, 1-(2,5-Dichloro-phenyl)-3-((4S,5S)-2,2-dimethyl-4-phenyl-[1,3]dioxan-5-yl)-urea] | 98 nM |
| CC1(C)OC[C@H](NC(=O)Nc2ccccc2C(F)(F)F)[C@H](c2ccccc2)O1 [Example 8, 1-((4S,5S)-2,2-Dimethyl-4-phenyl-[1,3]dioxan-5-yl)-3-(2-trifluoromethyl-phenyl)-urea] | 76 nM |
| CC1(C)OC[C@H](NC(=O)Nc2ccccc2Oc2ccccc2)[C@H](c2ccccc2)O1 [Example 21, 1-((4S,5S)-2,2-Dimethyl-4-phenyl-[1,3]dioxan-5-yl)-3-(2-phenoxy-phenyl)-urea] | 210 nM |
| COc1ccccc1NC(=O)N[C@H]1COC(C)(C)O[C@H]1c1ccccc1 [Example 37, 1-((4S,5S)-2,2-Dimethyl-4-phenyl-[1,3]dioxan-5-yl)-3-(2-methoxy-phenyl)-urea] | 6000 nM |
